Source: US20250084060A1, “PRMT5 INHIBITORS AND METHODS OF TREATMENT” (HANGZHOU UNOGEN BIOTECH, LTD., priority 2022, published 2025)

Tests used:
Z-138 cells = test: Z138 Cell Proliferation Assay; format: cell-based; details: Z-138 human mantle cell lymphoma cells, 72 hours, CTG readout
Protocol: Human Mantle Cell Lymphoma
Z-138 cells were plated in a 96-well plate in IMDM medium containing 10% Horse Serum and PenStrep at a density of 10,000 cells/well. The plates were incubated at 37° C. in a humidified, 5% CO2 incubator. The next day, serially diluted compounds were added in duplicates for 72 hours. Compounds were tested at 10, 2.5, 0.625, 0.156, 0.039, 0.010 0.002 and 0 uM final concentrations. After 72 hours of compound addition, […] of Promega's CTG assay reagent was added and incubated at room temperature for 10 minutes. Chemiluminescence was read using a GloMax Discover instrument.

PRMT5 = PRMT5 (Homo sapiens (Human), UniProt O14744); test: PRMT5 Chemiluminescent Assay; format: biochemical; details: PRMT5 chemiluminescent assay kit (BPS Bioscience), histone H4 peptide substrate, eight-point dose response
Protocol: The PRMT5 activity is measured by using “PRMT5 Chemiluminescent Assay Kit” from BPS Bioscience, Catalog Number 52002L as per the instructions of the manufacturer. Briefly, the PRMT5 enzyme is incubated with S-adenosylmethionine in a 96-well plate precoated with histone H4 peptide substrate. Next, a highly specific antibody that recognizes methylated R3 residue of Histone H4 is added followed by a horseradkish peroxidase-labeled (HRP-labeled) secondary antibody. Detection is done by the addition of the HRP substrate to produce chemiluminescence that can be measured quantitatively.
Compounds were serially diluted 3-fold and dosed from 10 uM down to 0 uM. Compounds were tested in duplicates to generate an eight-point dose response for the calculation of their IC50s.

[1] = Mouse Pharmacokinetic Studies; format: in vivo; details: male BALB/c mice, 3 mg/kg IV tail bolus, plasma
Protocol: Samples were obtained from 3 male BALB/c mice at staggered time points. Each mouse was given a tail bolus injection of 3 mg/kg injection of Compound 70 formulated as an IV solution with DMSO: PEG400: Aqueous solution with 20% HP-β-CD (5:30:65, v:v:v) (adjusted by 1N HCl). Blood samples (collected into lithium heparin tubes) were obtained at predose, and at 5, 15, 30 min and at 1, 2-, 4-, 8- and 24-hour, post injection. Plasma was separated from blood and stored at −20° C. prior to analysis. Samples were assayed by a LC/MS/MS procedure [AB Sciex API 4000; ACE Excel 5 C4 Column (50 mm*2.1 mm); Mobile Phase A: 5 mM NH4OAc (with 0.05% FA); Mobile Phase B: ACN (with 0.1% FA)]. Pharmacokinetic parameters were obtained from plasma concentrations using the R program—PK Package, Basic Non-Compartmental Pharmacokinetics, Thomas Jaki and Martin J. Wolfsegger Version 1.3-3, Jan. 6, 2016.

Chain of PRMT5 (O14744 2-637): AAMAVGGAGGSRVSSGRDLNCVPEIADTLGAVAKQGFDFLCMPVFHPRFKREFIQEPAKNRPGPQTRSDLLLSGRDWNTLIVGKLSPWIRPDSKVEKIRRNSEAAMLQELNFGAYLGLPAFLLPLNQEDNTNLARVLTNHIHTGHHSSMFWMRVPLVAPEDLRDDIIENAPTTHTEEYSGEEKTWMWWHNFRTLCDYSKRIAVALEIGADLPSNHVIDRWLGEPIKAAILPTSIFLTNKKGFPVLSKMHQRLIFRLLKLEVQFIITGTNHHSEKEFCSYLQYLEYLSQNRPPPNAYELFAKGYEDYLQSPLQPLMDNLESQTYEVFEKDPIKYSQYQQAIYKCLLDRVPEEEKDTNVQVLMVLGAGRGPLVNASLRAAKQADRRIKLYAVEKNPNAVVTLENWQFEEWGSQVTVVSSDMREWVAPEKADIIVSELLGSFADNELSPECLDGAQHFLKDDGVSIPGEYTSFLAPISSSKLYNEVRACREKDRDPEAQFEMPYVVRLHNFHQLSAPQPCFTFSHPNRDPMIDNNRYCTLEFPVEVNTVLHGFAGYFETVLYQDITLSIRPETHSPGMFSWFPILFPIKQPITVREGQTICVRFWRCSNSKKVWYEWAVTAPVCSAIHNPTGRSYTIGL
Chain of PRMT5 (Q9BQA1 2-342 partner): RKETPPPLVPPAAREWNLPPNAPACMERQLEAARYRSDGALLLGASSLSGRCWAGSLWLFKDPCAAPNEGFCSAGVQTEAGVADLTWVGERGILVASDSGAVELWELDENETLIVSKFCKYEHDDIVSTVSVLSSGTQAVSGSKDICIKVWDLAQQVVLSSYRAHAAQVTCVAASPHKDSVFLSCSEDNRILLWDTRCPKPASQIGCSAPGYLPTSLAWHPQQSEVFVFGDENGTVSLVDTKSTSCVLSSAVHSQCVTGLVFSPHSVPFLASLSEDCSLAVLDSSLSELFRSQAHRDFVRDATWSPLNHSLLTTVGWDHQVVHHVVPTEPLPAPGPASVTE

IC50 (PRMT5) [nM]	Structure (SMILES)	IC50 (Z-138 cells) [nM]	further results
–	O=c1c2ccccc2n(CC2CC2)c(=O)n1C[C@H](O)CN1CCc2ccccc2C1 [Compound 74, 1-(cyclopropylmethyl)-3-[(2R)-3-(3,4-dihydro-1H-isoquinolin-2-yl)-2-hydroxy-propyl]quinazoline-2,4-dione]	2940	IC50 Values (PRMT5): <0.014 μMolar
12	O=c1c2ccc(Cl)cc2n(CC2CC2)c(=O)n1C[C@H](O)CN1CCc2ccccc2C1 [Compound 78, 7-chloro-1-(cyclopropylmethyl)-3-[(2R)-3-(3,4-dihydro-1H-isoquinolin-2-yl)-2-hydroxy-propyl]quinazoline-2,4-dione]	1950	–
45	O=c1c2cc(-c3ccc(F)cc3)ccc2n(CC(F)F)c(=O)n1C[C@H](O)CN1CCc2ccccc2C1 [Compound 94, 1-(2,2-difluoroethyl)-3-[(2R)-3-(3,4-dihydro-1H-isoquinolin-2-yl)-2-hydroxy-propyl]-6-(4-fluorophenyl)quinazoline-2,4-dione]	10000	–
36	O=c1c2ccccc2n(CC2CCC2)c(=O)n1C[C@H](O)CN1CCc2ccccc2C1 [Compound 92, 1-(cyclobutylmethyl)-3-[(2R)-3-(3,4-dihydro-1H-isoquinolin-2-yl)-2-hydroxy-propyl]quinazoline-2,4-dione]	3630	–
29	O=c1c2ccccc2n(CC(F)F)c(=O)n1C[C@H](O)CN1CCc2ccccc2C1 [Compound 79, 1-(2,2-difluoroethyl)-3-[(2R)-3-(3,4-dihydro-1H-isoquinolin-2-yl)-2-hydroxy-propyl]quinazoline-2,4-dione]	2850	–
43	COc1ccc(-c2ccc3c(=O)n(C[C@H](O)CN4CCc5ccccc5C4)c(=O)n(CC4CC4)c3c2)cn1 [Compound 91, 1-(cyclopropylmethyl)-3-[(2R)-3-(3,4-dihydro-1H-isoquinolin-2-yl)-2-hydroxy-propyl]-7-(6-methoxy-3-pyridyl)quinazoline-2,4-dione]	1930	–
–	CC(C)Cn1c(=O)n(C[C@H](O)CN2CCc3ccccc3C2)c(=O)c2ccc(Br)cc21 [Compound 70, 7-bromo-3-[(2R)-3-(3,4-dihydro-1H-isoquinolin-2-yl)-2-hydroxy-propyl]-1-isobutyl-quinazoline-2,4-dione]	673	IC50 Values (PRMT5): <0.014 μMolar; AUC(0-inf) [1]: 748 ng·h/mL; C0 [1]: 1520 ng/mL; MRT inf [1]: 1.22 h; clearance [1]: 66.9 mL/min/kg; half-life [1]: 1.56 h; Vd ([1]; read-out: Vss): 4.88 L/kg
9	O=c1c2ccc(Br)cc2n(CC2CC2)c(=O)n1C[C@H](O)CN1CCc2ccccc2C1 [Compound 80, 7-bromo-1-(cyclopropylmethyl)-3-[(2R)-3-(3,4-dihydro-1H-isoquinolin-2-yl)-2-hydroxy-propyl]quinazoline-2,4-dione]	1120	–
